Measurements as given in patent publication US12252492B2, “Substituted fused pyrrolo-diazepinones and uses thereof” (Northwestern University, priority 2018, dated 2025).

How the values were obtained:
Type in all cases: cell-based, human
HOP-92 = assay: NCI60 one-dose screen, HOP-92; conditions: HOP-92 (Non-Small Cell Lung Cancer); NCI 60 one-dose, 10^-5 M
Procedure: (§1) Anti-cancer activity screening of all compounds was performed by the NCI Developmental Therapeutics Program (DTP) through their NCI60 screening initiative. Assay details can be found at the website dtp.cancer.gov/discovery_development/nci-60/methodology.htm. Information from this website is reproduced here for convenience.
(§2) As of early 2007 all compounds submitted to the NCI 60 Cell screen are tested initially at a single high dose (10^-5 M) in the full NCI 60 cell panel. Only compounds which satisfy pre-determined threshold inhibition criteria in a minimum number of cell lines will progress to the full 5-dose assay. The threshold inhibition criteria for progression to the 5-dose screen was selected to efficiently capture compounds with anti-proliferative activity based on careful analysis of historical DTP screening data. The threshold criteria may be updated as additional data becomes available.
(§3) The One-dose data will be reported as a mean graph of the percent growth of treated cells and will be similar in appearance to mean graphs from the 5-dose assay. […]
(§4) Following drug addition, the plates are incubated for an additional 48 h at 37° C., 5% CO2, 95% air, and 100% relative humidity. […] Bound stain is subsequently solubilized with 10 mM trizma base, and the absorbance is read on an automated plate reader at a wavelength of 515 nm. […]

HT29 = assay: NCI60 one-dose screen, HT29; conditions: HT29 (Colon Cancer); NCI 60 one-dose, 10^-5 M
Procedure: as §1, §2, §3, §4

KM12 = assay: NCI60 one-dose screen, KM12; conditions: KM12 (Colon Cancer); NCI 60 one-dose, 10^-5 M
Procedure: as §1, §2, §3, §4

SF-539 = assay: NCI60 one-dose screen, SF-539; conditions: SF-539 (CNS Cancer); NCI 60 one-dose, 10^-5 M
Procedure: as §1, §2, §3, §4

SW-620 = assay: NCI60 one-dose screen, SW-620; conditions: SW-620 (Colon Cancer); NCI 60 one-dose, 10^-5 M
Procedure: as §1, §2, §3, §4

SF-268 = assay: NCI60 one-dose screen, SF-268; conditions: SF-268 (CNS Cancer); NCI 60 one-dose, 10^-5 M
Procedure: as §1, §2, §3, §4

DU-145 = assay: NCI60 one-dose screen, DU-145; conditions: DU-145 (Prostate Cancer); NCI 60 one-dose, 10^-5 M
Procedure: as §1, §2, §3, §4

HCC-2998 = assay: NCI60 one-dose screen, HCC-2998; conditions: HCC-2998 (Colon Cancer); NCI 60 one-dose, 10^-5 M
Procedure: as §1, §2, §3, §4

SK-MEL-2 = assay: NCI60 one-dose screen, SK-MEL-2; conditions: SK-MEL-2 (Melanoma); NCI 60 one-dose, 10^-5 M
Procedure: as §1, §2, §3, §4

UACC-257 = assay: NCI60 one-dose screen, UACC-257; conditions: UACC-257 (Melanoma); NCI 60 one-dose, 10^-5 M
Procedure: as §1, §2, §3, §4

PC-3 = assay: NCI60 one-dose screen, PC-3; conditions: PC-3 (Prostate Cancer); NCI 60 one-dose, 10^-5 M
Procedure: as §1, §2, §3, §4

M14 = assay: NCI60 one-dose screen, M14; conditions: M14 (Melanoma); NCI 60 one-dose, 10^-5 M
Procedure: as §1, §2, §3, §4

NCI-H322M = assay: NCI60 one-dose screen, NCI-H322M; conditions: NCI-H322M (Non-Small Cell Lung Cancer); NCI 60 one-dose, 10^-5 M
Procedure: as §1, §2, §3, §4

MDA-MB-231/ATCC = assay: NCI60 one-dose screen, MDA-MB-231; conditions: MDA-MB-231/ATCC (Breast Cancer); NCI 60 one-dose, 10^-5 M
Procedure: as §1, §2, §3, §4

CCRF-CEM = assay: NCI60 one-dose screen, CCRF-CEM; conditions: CCRF-CEM (Leukemia); NCI 60 one-dose, 10^-5 M
Procedure: as §1, §2, §3, §4

COLO 205 = assay: NCI60 one-dose screen, COLO 205; conditions: COLO 205 (Colon Cancer); NCI 60 one-dose, 10^-5 M
Procedure: as §1, §2, §3, §4

EKVX = assay: NCI60 one-dose screen, EKVX; conditions: EKVX (Non-Small Cell Lung Cancer); NCI 60 one-dose, 10^-5 M
Procedure: as §1, §2, §3, §4

ACHN = assay: NCI60 one-dose screen, ACHN; conditions: ACHN (Renal Cancer); NCI 60 one-dose, 10^-5 M
Procedure: as §1, §2, §3, §4

| Compound | Growth Percent (HOP-92) | Growth Percent (HT29) | Growth Percent (KM12) | Growth Percent (SF-539) | Growth Percent (SW-620) | Growth Percent (SF-268) | Growth Percent (DU-145) | Growth Percent (HCC-2998) | Growth Percent (SK-MEL-2) | Growth Percent (UACC-257) | Growth Percent (PC-3) | Growth Percent (M14) | Growth Percent (NCI-H322M) | Growth Percent (MDA-MB-231/ATCC) | Growth Percent (CCRF-CEM) | Growth Percent (COLO 205) | Growth Percent (EKVX) | Growth Percent (ACHN) |
| --- | --- | --- | --- | --- | --- | --- | --- | --- | --- | --- | --- | --- | --- | --- | --- | --- | --- | --- |
| CC(=O)N1c2ccccc2NC2=C(C(=O)N(C)C2(C)C)C1c1ccccc1 (stereo not drawn) [NUCC-60872] | 37.54% | 25.22% | 19.79% | 20.14% | 24.24% | 42.99% | 78.98% | 60.81% | 8.92% | 36.37% | 36.41% | 21.48% | 73.36% | 63.32% | 20.66% | 14.23% | 61.53% | 95.96% |
| CC(=O)N1c2ccccc2NC2=C(C(=O)N(Cc3ccccc3)C2(C)C)C1c1ccco1 (stereo not drawn) [NUCC-608455] | 21.07% | 9.99% | 14.83% | −17.85% | 21.68% | 42.68% | 7.82% | 3.73% | 16.91% | 77.61% | 29.67% | −13.58% | 44.61% | 9.25% | 24.15% | 16.77% | 35.37% | 33.51% |
